Series [1] addresses T1, Human acid ceramidase (hACR) (Homo sapiens, UniProt Q13510).
T1 construct: expressed in transfected cells; lysates of cells overexpressing acid ceramidase
T1 sequence (Q13510 22-395): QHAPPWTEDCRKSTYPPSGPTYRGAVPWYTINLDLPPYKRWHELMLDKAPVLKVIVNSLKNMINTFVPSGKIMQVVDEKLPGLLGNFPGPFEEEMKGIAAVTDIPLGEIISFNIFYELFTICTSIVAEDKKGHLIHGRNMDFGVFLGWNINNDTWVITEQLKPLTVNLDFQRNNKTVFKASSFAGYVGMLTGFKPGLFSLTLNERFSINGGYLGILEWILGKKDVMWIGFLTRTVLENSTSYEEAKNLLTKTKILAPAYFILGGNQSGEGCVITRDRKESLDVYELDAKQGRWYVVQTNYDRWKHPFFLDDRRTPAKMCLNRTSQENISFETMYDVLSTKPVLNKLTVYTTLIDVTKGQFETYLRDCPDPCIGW
The experiment in a line: Acid ceramidase biochemical fluorescent assay (cell lysates overexpressing acid ceramidase, substrate Rbm14-12). The settings on record: 10 μg lysate protein, 1 hr preincubation at RT, pH 4.5, Rbm14-12 6.3 μM. The protocol: The ability of exemplary compounds to inhibit acid ceramidase was measured.
Cell lysates overexpressing acid ceramidase were used as the enzyme source for compound potency determination in a biochemical fluorescent assay. Briefly, compounds were preincubated with 10 μg protein of cell lysates in a dose-response manner for 1 hr at RT in the assay buffer containing 25 mM NaAC and 100 mM NaCl, pH 4.5. The reaction was initiated by the addition of substrate Rbm14-12 at a final concentration of 6.3 μM. The reaction was run at RT for 1 hr before it was stopped by the addition of the stopping buffer containing 20% methanol (v/v), 1 mg/ml NaIO4, 0.1 M glycine, pH 10.6. The samples were incubated with the stopping buffer at RT for 1 hr to allow the fluorescent product to be formed. Finally the plate was read with SpectraMax i3 plate reader (Molecular Devices) at ex360 nm and em446 nm. Data were collected and used to determine the IC50 values of compounds by curve fitting to the four-parameter inhibition equation.
The symbol “A” indicates inhibition of less than 0.2 μM; the symbol “B” indicates inhibition in the range of 0.2 μM up to 1 μM; and the symbol “C” indicates inhibition of greater than 1 μM.

Series [2] is described as follows: Compound solubility in water. Type of series: physicochemical. The settings on record: read-out: Solubility in H2O.

Converted amounts (≈) assume the structure as drawn. Bounds are passed on as bounds.

Take `Cn1c(=O)oc2cc(C3CC4CCC(C3)N4C(=O)NCCCCc3ccccc3)ccc21` (centres unmarked) [Example 33, 3-(3-Methyl-2-oxo-1,3-benzoxazol-6-yl)-N-(4-phenylbutyl)-8-azabicyclo[3.2.1]octane-8-carboxamide]: the concentration for half-maximal inhibition (IC50) in series [1] is < 200 nM. Also, in series [2], the solubility was 3.2 µM (≈ 1.39 µg/mL). As for `Cn1c(=O)oc2cc(C3CCN(C(=O)NC4CCCCC4)CC3)ccc21` [Example 5, N-Cyclohexyl-4-(3-methyl-2-oxo-1,3-benzoxazol-6-yl)piperidine-1-carboxamide], the IC50 in series [1] was > 1000 nM.

Turning to `Cn1c(=O)oc2cc(N3C[C@H]4CN(C(=O)NCCCCc5ccccc5)C[C@H]4C3)ccc21` [Example 66, (3aS,6aR)- and (3aR,6aS)-2-(3-Methyl-2-oxo-1,3-benzoxazol-6-yl)-N-(4-phenylbutyl)-1,3,3a,4,6,6a-hexahydropyrrolo[3,4-c]pyrrole-5-carboxamide], the IC50 in series [1] was < 200 nM. As for `O=C(NCCCCc1ccccc1)N1CCCCC1c1ccc2[nH]c(=O)oc2c1` (centres unmarked) [Example 36, 2-(2-Oxo-3H-1,3-benzoxazol-6-yl)-N-(4-phenylbutyl)piperidine-1-carboxamide], the IC50 in series [1] was > 1000 nM. On the same count and under the same terms, the result for `C[C@H]1CN(c2ccc3c(c2)oc(=O)n3C)CCN1C(=O)NCCCCc1ccccc1` [Example 49, (2S)-2-Methyl-4-(3-methyl-2-oxo-1,3-benzoxazol-6-yl)-N-(4-phenylbutyl)piperazine-1-carboxamide] reads 200 to 1000 nM; that for `C[C@@H]1CC(c2ccc3c(c2)oc(=O)n3C)CCN1C(=O)NCCc1ccccc1` (mixture of isomers) [Example 18, (2R)-2-Methyl-4-(3-methyl-2-oxo-1,3-benzoxazol-6-yl)-N-(2-phenylethyl)piperidine-1-carboxamide], 200 to 1000 nM; that for `Cn1c(=O)oc2cc(C3=CCCN(C(=O)NCCCCc4ccccc4)C3)ccc21` [Example 15, 5-(3-methyl-2-oxo-1,3-benzoxazol-6-yl)-N-(4-phenylbutyl)-3,6-dihydro-2H-pyridine-1-carboxamide], 200 to 1000 nM. The same measure, in the same setting: the result for `O=C(NCCCCc1ccccc1)N1CCN(c2ccc3[nH]c(=O)oc3c2)CC1` [Example 45, 4-(2-Oxo-3H-1,3-benzoxazol-6-yl)-N-(4-phenylbutyl)piperazine-1-carboxamide] reads > 1000 nM; that for `CCOCCNC(=O)N1CCN(c2ccc3c(c2)oc(=O)n3C)CC1(C)C` [Example 55, N-(2-Ethoxyethyl)-2,2-dimethyl-4-(3-methyl-2-oxo-1,3-benzoxazol-6-yl)piperazine-1 carboxamide], > 1000 nM; that for `CN(C)CCn1c(=O)oc2cc(C3CCN(C(=O)NCCCCc4ccccc4)C(C)(C)C3)ccc21` (centres unmarked) [Example 32, 4-[3-[2-(Dimethylamino)ethyl]-2-oxo-1,3-benzoxazol-6-yl]-2,2-dimethyl-N-(4-phenylbutyl)piperidine-1-carboxamide], < 200 nM. The same measure, in the same setting: the result for `CC(C)CNC(=O)N1CCC(c2ccc3c(c2)oc(=O)n3C)C[C@H]1C` (mixture of isomers) [Example 19, N-iso-Butyl (2R)-methyl-4-(3-methyl-2-oxo-1,3-benzoxazol-6-yl)piperidine-1-carboxamide] reads > 1000 nM; that for `COCCCNC(=O)N1CCN(c2ccc3c(c2)oc(=O)n3C)CC1(C)C` [Example 56, N-(3-Methoxypropyl)-2,2-dimethyl-4-(3-methyl-2-oxo-1,3-benzoxazol-6-yl)piperazine-1-carboxamide], > 1000 nM; that for `Cn1c(=O)oc2cc(N3CC4(CCN(C(=O)NCCCCc5ccccc5)CC4)C3)ccc21` [Example 70, 2-(3-Methyl-2-oxo-1,3-benzoxazol-6-yl)-N-(4-phenylbutyl)-2,7-diazaspiro[3.5]nonane-7-carboxamide], > 1000 nM. For `Cn1c(=O)oc2cc(C3CCCN3C(=O)NCCCCc3ccccc3)ccc21` (centres unmarked) [Example 44, 2-(3-Methyl-2-oxo-1,3-benzoxazol-6-yl)-N-(4-phenylbutyl)pyrrolidine-1-carboxamide], the concentration for half-maximal inhibition (IC50) in series [1] is > 1000 nM. Still for that read-out and setting: as for `O=C(NCCCCc1ccccc1)N1CCCC(c2ccc3[nH]c(=O)oc3c2)C1` (centres unmarked) [Example 11, 3-(2-Oxo-3H-1,3-benzoxazol-6-yl)-N-(4-phenylbutyl)piperidine-1-carboxamide], the figure is > 1000 nM. For `Cn1c(=O)oc2cc(N3CC4(COC4)N(C(=O)NCCCCc4ccccc4)CC3=O)ccc21` [Example 62, 8-(3-Methyl-2-oxo-1,3-benzoxazol-6-yl)-7-oxo-N-(4-phenylbutyl)-2-oxa-5,8-diazaspiro[3.5]nonane-5-carboxamide], the IC50 in series [1] was 200 to 1000 nM. Same read-out and setting: as for `Cn1c(=O)oc2cc(C3CCN(C(=O)NCCCCc4ccccc4)C4(COC4)C3)ccc21` (centres unmarked) [Example 34, 8-(3-Methyl-2-oxo-1,3-benzoxazol-6-yl)-N-(4-phenylbutyl)-2-oxa-5-azaspiro[3.5]nonane-5-carboxamide], the figure is > 1000 nM. The same measure, in the same setting: as for `CC1(C)CC(c2ccc3[nH]c(=O)oc3c2)CCN1C(=O)NCCCCc1ccccc1` (centres unmarked) [Example 23, 2,2-Dimethyl-4-(2-oxo-3H-1,3-benzoxazol-6-yl)-N-(4-phenylbutyl)piperidine-1-carboxamide], the figure is < 200 nM. On the same count and under the same terms, the result for `O=C(NCCCCc1ccccc1)N1CC2(CCN(c3ccc4[nH]c(=O)oc4c3)CC2)C1` [Example 67, 7-(2-Oxo-3H-1,3-benzoxazol-6-yl)-N-(4-phenylbutyl)-2,7-diazaspiro[3.5]nonane-2-carboxamide] reads > 1000 nM; that for `Cn1c(=O)oc2cc(N3CCC4(CCN(C(=O)NCCCCc5ccccc5)CC4)CC3)ccc21` [Example 71, 9-(3-Methyl-2-oxo-1,3-benzoxazol-6-yl)-N-(4-phenylbutyl)-3,9-diazaspiro[5.5]undecane-3-carboxamide], > 1000 nM. On to `O=C(NCCCCc1ccccc1)N1CCC2(CC1)CN(c1ccc3[nH]c(=O)oc3c1)C2` [Example 69, 2-(2-Oxo-3H-1,3-benzoxazol-6-yl)-N-(4-phenylbutyl)-2,7-diazaspiro[3.5]nonane-7-carboxamide], for which the IC50 in series [1] is > 1000 nM. With `Cn1c(=O)oc2cc(N3CCN(C(=O)NCCCCc4ccccc4)C4(CC4)C3)ccc21` [Example 60, 7-(3-Methyl-2-oxo-1,3-benzoxazol-6-yl)-N-(4-phenylbutyl)-4,7-diazaspiro[2.5]octane-4-carboxamide], the 50% inhibitory concentration (IC50) in series [1] was > 1000 nM.

Regarding `Cn1c(=O)oc2cc(N3CCC4(CC3)CN(C(=O)NCCCCc3ccccc3)C4)ccc21` [Example 68, 7-(3-methyl-2-oxo-1,3-benzoxazol-6-yl)-N-(4-phenylbutyl)-2,7-diazaspiro[3.5]nonane-2-carboxamide], the IC50 in series [1] is > 1000 nM.

As for `C[C@@H]1CC(c2ccc3c(c2)oc(=O)n3C)CCN1C(=O)NCCCCc1ccccc1` (mixture of isomers) [Example 17, (2R)-2-Methyl-4-(3-methyl-2-oxo-1,3-benzoxazol-6-yl)-N-(4-phenylbutyl)piperidine-1-carboxamide], the IC50 in series [1] was < 200 nM. The same measure, in the same setting: the result for `Cn1c(=O)oc2cc(N3CC4CCC(C3)N4C(=O)NCCCCc3ccccc3)ccc21` [Example 61, 3-(3-Methyl-2-oxo-1,3-benzoxazol-6-yl)-N-(4-phenylbutyl)-3,8-diazabicyclo[3.2.1]octane-8-carboxamide] reads > 1000 nM; that for `COCCCNC(=O)N1CCC(c2ccc3c(c2)oc(=O)n3C)CC1(C)C` (centres unmarked) [Example 30, N-(3-methoxypropyl)-2,2-dimethyl-4-(3-methyl-2-oxo-1,3-benzoxazol-6-yl)piperidine-1-carboxamide], > 1000 nM. Still for that read-out and setting: as for `Cn1c(=O)oc2cc(C3CCN(C(=O)NCCC4CC4)CC3)ccc21` [Example 4, N-(2-Cyclopropylethyl)-4-(3-methyl-2-oxo-1,3-benzoxazol-6-yl)piperidine-1-carboxamide], the figure is > 1000 nM; as for `Cn1c(=O)oc2cc(C3CCN(C(=O)NCCCCc4ccccc4)CC3)ccc21` [Example 2, 4-(3-Methyl-2-oxo-1,3-benzoxazol-6-yl)-N-(4-phenylbutyl)piperidine-1-carboxamide], > 1000 nM; as for `Cn1c(=O)oc2cc(C3COCCN3C(=O)NCCCCc3ccccc3)ccc21` (centres unmarked) [Example 38, 3-(3-Methyl-2-oxo-1,3-benzoxazol-6-yl)-N-(4-phenylbutyl)morpholine-4-carboxamide], > 1000 nM. On the same count and under the same terms, as for `CCCCCNC(=O)N1CCCC(c2ccc3c(c2)oc(=O)n3C)C1` (centres unmarked) [Example 13, 3-(3-Methy-2-oxo-1,3-benzoxazol-6-yl)-N-pentyl-piperidine-1-carboxamide], the figure is > 1000 nM. With `CCOCCNC(=O)N1CCCC(c2ccc3c(c2)oc(=O)n3C)C1` (centres unmarked) [Example 14, N-(2-Ethoxyethyl)-3-(3-methyl-2-oxo-1,3-benzoxazol-6-yl)piperidine-1-carboxamide], the IC50 in series [1] was > 1000 nM.

By IC50 is commonly meant the concentration that gives 50% inhibition. The term solubility denotes the concentration that dissolves in the medium under given conditions.
